Reference: patent EP1043331A1, “BONE-RESORPTIVE CYTOKINE INHIBITOR CONTAINING DIENOGEST AS THE ACTIVE INGREDIENT” (MOCHIDA PHARMACEUTICAL CO., LTD., priority 1997, dated 1999)
Marks after values point to notes of the source that are not given here.

Key:
Assay type in all cases: cell-based, mouse
cAMP = cAMP content in murine osteoblast (time-resolved fluorometry); settings: Fig.1
Method: According to the method by Johansen, et al. (Journal Bone and Mineral Research, Vol.7, pp.501-509, 1992), osteoblast was collected from the femoral bones of a female SLC : ICR mouse of age 15 weeks. Under anesthesia with pentobarbital sodium (25 mg/kg, intraperitoneal administration), postcava was cut to bleed and kill the animal to death. Then, bilateral femoral bones were resected. This bone was cut with a pair of bone scissors, to remove the bone marrow with a micro-loop. The inner face of the bone was rubbed off with a sharp blade. The resulting matter was agitated in a 10 % collagenase solution (Nitta gelatin) at 37 °C for 20 minutes, and to the resulting mixture was added a culture medium (an MEM culture medium supplemented with 10 % charcoal-treated bovine fetal serum; manufactured by Nissui Pharmaceutical, Co. Ltd.) prior to centrifugation (300×g, 5 minutes and 20 °C). The resulting cells were dispersed in a fresh culture medium and then inoculated on a plastic culture dish (diameter of 35 mm, Primaria (Falcon)). […] Osteoblast was identified by using alkali phosphatase staining as an osteoblast marker. For recovering osteoblast from an animal after ovariectomy, ovariectomy was carried out at age 11 weeks, and the animal was fed for the following 4 weeks, prior to the same treatment. 1×10^4 cells/ml osteoblast suspension (100 µl), a culture medium (890 µl) and a drug solution (10 µl) were added into each well of a plastic 24-well culture plate (Falcon), for culturing at 37 °C in 5 % CO2/95 % air for 24 hours, and then, the resulting culture was centrifuged (300 ×g, 5 minutes, 20°C) to recover the supernatant, which was defined as a cytokine assay sample. […] For experiments, furthermore, three dishes per each group were used. […] After rinsing with a DELFIA rinse solution, an enhancer reagent (100 µl) was added, for agitation at room temperature for 5 minutes, to determine the fluorescence intensity with a time-resolved fluorometer. Based on a preliminarily prepared standard curve, cAMP content was calculated.

IL-6 = IL-6 release from murine osteoblast (culture supernatant cytokine assay); settings: 24 hours culture
Method: Under anesthesia with pentobarbital sodium (25 mg/kg, intraperitoneal administration), postcava was cut to bleed and kill the animal to death. Then, bilateral femoral bones were resected. This bone was cut with a pair of bone scissors, to remove the bone marrow with a micro-loop. The inner face of the bone was rubbed off with a sharp blade. The resulting matter was agitated in a 10 % collagenase solution (Nitta gelatin) at 37 °C for 20 minutes, and to the resulting mixture was added a culture medium (an MEM culture medium supplemented with 10 % charcoal-treated bovine fetal serum; manufactured by Nissui Pharmaceutical, Co. Ltd.) prior to centrifugation (300×g, 5 minutes and 20 °C). The resulting cells were dispersed in a fresh culture medium and then inoculated on a plastic culture dish (diameter of 35 mm, Primaria (Falcon)). […] Osteoblast was identified by using alkali phosphatase staining as an osteoblast marker. For recovering osteoblast from an animal after ovariectomy, ovariectomy was carried out at age 11 weeks, and the animal was fed for the following 4 weeks, prior to the same treatment.
Dienogest as a test substance was dissolved and diluted in dimethylsulfoxide (DMSO, manufactured by Wako Pure Chemical Industries, Ltd.) for use. As a control substance, furthermore, MPA and danazol were used after they were dissolved and diluted in DMSO. DMSO was used as a solvent control.
The final concentrations of the drug were 10^-11, 10^-10 and 10^-9 M. For experiments, furthermore, three dishes per each group were used.
Using SMRART ™ (Pharmacia Biotech, Uppsala, Sweden), the supernatant was concentrated by about 10 fold, after the termination of culturing. The level of cytokine in the sample was assayed by using assay kits of murine IL-1β, IL-6 and TNF-α (Cytoscreen™, BioSource International, Camarillo, Calif. CA, USA) and europium-labeled streptoavidin (Pharmacia Biotech).

murine osteoclast = experiment: Pit formation by murine osteoclast on ivory disks; settings: 3 days culture on ivory disk, control 0.16
Method: After an ICR mouse of age 13 days was bled to death under anesthesia (pentobarbital sodium), bilateral femoral bones were resected. In an α-MEM culture medium (Gibco), the femoral bones were cut into pieces with a pair of bone scissors for 5 minutes, and the resulting pieces were agitated with a vortex mixer for 30 seconds. The cell suspension was centrifuged (1000 g, 2 min., 15 °C), and the resulting supernatant was discarded. The precipitate was suspended in an α-MEM culture medium, to adjust the suspension to a cell number of 1×10^7 cells/ml.
A purchased ivory piece was processed into a disk of a diameter of 5.5 mm and a thickness of 200 µm, by using a precision low-speed cutter (manufactured by BUEHLER) and a cut blade. The disk was then treated under ultrasonication in distilled water, and was immersed in an α-MEM culture medium (culture medium) supplemented with 10 % bovine fetal serum (Dai-Nippon Pharmaceuticals, Co.) treated with charcoal. The resulting each disk was placed in each well of a 96-well culture plate (Falcon), to which was added 100 µl of the drug solution. The osteoclast suspension was inoculated at 1×10^6 cells(100µl) thereon, for culturing at 37 °C in 5 % CO2/95 % air for 3 days. All the drugs were adjusted to final concentrations of 10^-11, 10^-10 and 10^-9 M. Additionally, five samples per each concentration were experimented.
Absorbency was determined by calculating a phargocytized area on the bone. More specifically, the ivory piece after the treatment with the drugs was wiped with gauze, rinsed with an ultrasonication machine for 30 minutes, and stained with an acid hematoxylin solution (Sigma Chemical Co., Ltd.) for 5 minutes. The piece was then rinsed in distilled water, and the phargocytized absorption area was measured with an image analyzer (Luzex, Nireco) at 100 magnification. Nine different parts were counted per each ivory piece, to calculate the average.

[1] = osteoblast of non-treated mouse, 10^-9 M, control 39.9
[2] = osteoblast of non-treated mouse, 10^-10 M, control 39.9
[3] = osteoblast of non-treated mouse, 10^-11 M, control 39.9
[4] = osteoblast of ovariectomized mouse, 10^-9 M, control 109.0
[5] = osteoblast of ovariectomized mouse, 10^-10 M, control 109.0
[6] = osteoblast of ovariectomized mouse, 10^-11 M, control 109.0
[7] = doses of 10^-11, 10^-10 and 10^-9 M

SMILES	cAMP content in murine osteoblast (cAMP; at a concentration of 10^-9 M or more)	IL-6 (IL-6; [1])	IL-6 (IL-6; [2])	IL-6 (IL-6; [3])	IL-6 (IL-6; [4])	IL-6 (IL-6; [5])	IL-6 (IL-6; [6])	pit formation due to murine osteoclast (phargocytized absorption area) (murine osteoclast; 10^-9 M)	pit formation due to murine osteoclast (phargocytized absorption area) (murine osteoclast; 10^-10 M)	pit formation due to murine osteoclast (phargocytized absorption area) (murine osteoclast; 10^-11 M)	cAMP content in murine osteoblast (cAMP; [7])
C[C@]12CCC3=C4CCC(=O)C=C4CC[C@H]3[C@@H]1CC[C@@]2(O)CC#N [Dienogest, 17 α-cyanomethyl-17β-hydroxy-estra-4,9(10)-dien-3-one]	significantly increased	32.3** pg/ml	35.5 pg/mL	39.3 pg/mL	40.1** pg/ml	47.7** pg/ml	94.2 pg/mL	0.10**	0.15	0.15	
CC(=O)O[C@]1(C(C)=O)CC[C@H]2[C@@H]3C[C@H](C)C4=CC(=O)CC[C@]4(C)[C@H]3CC[C@@]21C [MPA, medroxyprogesterone acetate]		45.1** pg/ml	37.6 pg/mL	38.7 pg/mL	122.5** pg/ml	109.3 pg/mL	111.4 pg/mL	0.16	0.16	0.16	did not affect
C#C[C@]1(O)CC[C@H]2[C@@H]3CCC4=Cc5oncc5C[C@]4(C)[C@H]3CC[C@@]21C [Danazol, danazol]		42.0** pg/ml	37.7 pg/mL	38.9 pg/mL	124.0** pg/ml	109.4 pg/mL	111.3 pg/mL	0.16	0.15	0.16	did not affect
